Assay results from paper PMC5775816 (Journal of medicinal chemistry, 2016).
“Also recorded” adds a separate entry of the source. Values belong to the molecule of their own block, whether it stands above or below them.

How the values were obtained:
[1] = target: T1, PAR4 (Homo sapiens, UniProt Q96RI0); details: literature antagonists; cited from earlier work
T1 sequence (Q96RI0 48-385): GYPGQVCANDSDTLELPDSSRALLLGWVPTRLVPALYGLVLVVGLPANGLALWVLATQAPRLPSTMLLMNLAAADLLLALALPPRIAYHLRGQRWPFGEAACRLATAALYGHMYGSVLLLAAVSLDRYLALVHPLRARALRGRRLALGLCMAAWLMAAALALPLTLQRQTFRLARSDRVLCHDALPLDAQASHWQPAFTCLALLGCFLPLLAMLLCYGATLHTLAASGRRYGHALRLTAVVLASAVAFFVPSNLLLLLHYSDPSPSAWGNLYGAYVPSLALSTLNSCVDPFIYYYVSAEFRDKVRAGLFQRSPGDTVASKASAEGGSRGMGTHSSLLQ

[2] = tested on: PAR4; details: read-out: EC50 for PAR4; thrombin as agonist; background statement; cited from earlier work
[3] = target: T2, PAR4 (Homo sapiens, UniProt Q96RI0); assay: PAC-1 binding assay; assay type: cell-based; details: for PAR4 activity (in words): PAR4-AP, PAC-1
T2 sequence (Q96RI0 18-385): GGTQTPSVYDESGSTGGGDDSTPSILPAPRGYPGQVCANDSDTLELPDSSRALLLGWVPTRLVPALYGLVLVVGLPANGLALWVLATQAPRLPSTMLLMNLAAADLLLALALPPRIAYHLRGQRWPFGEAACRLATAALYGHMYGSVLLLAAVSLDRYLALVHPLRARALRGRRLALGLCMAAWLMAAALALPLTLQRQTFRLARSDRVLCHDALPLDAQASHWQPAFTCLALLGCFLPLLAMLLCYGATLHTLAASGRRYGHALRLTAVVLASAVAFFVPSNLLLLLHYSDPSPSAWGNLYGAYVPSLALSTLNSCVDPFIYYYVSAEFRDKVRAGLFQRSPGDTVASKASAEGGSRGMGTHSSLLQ

[4] = In vivo rat PK; details: plasma, iv, 0.2 mg/kg
[5] = Predicted hepatic clearance in human microsomes; assay type: in vitro ADME
[6] = Predicted hepatic clearance in rat microsomes; assay type: in vitro ADME
[7] = target: T2, PAR4; assay: Progressive fold-shift inhibition assay/Schild analysis; assay type: cell-based

Molecule: CCOC(=O)c1ccc(-c2nn(Cc3ccccc3)c3ccccc23)cc1 [compound 1]
activity upon γ-thrombin activation (in words) [1]: lack of activity

Molecule: Thrombin
EC50 [2]: ~5 nM

Molecule: COc1ccc(-c2c(CO)n(C)c3ccc(C(F)(F)F)cc23)cn1 [9a]
PAR4 activity (in words) [3]: devoid of PAR4 activity

Molecule: COc1ccc(-c2c(CO)n(Cc3ccccc3)c3ccc(OC(F)(F)F)cc23)cn1 [9b]
PAR4 activity (in words) [3]: devoid of PAR4 activity

Molecule: COc1ccc(-c2c(CO)n(Cc3cccc(Cl)c3)c3ccc(OC(F)(F)F)cc23)cn1 [9h]
PAR4 activity (in words) [3]: devoid of PAR4 activity

Molecule: COc1ccc(-c2c(CO)n(Cc3cccc(F)c3)c3ccc(OC(F)(F)F)cc23)cn1 [9e]
PAR4 activity (in words) [3]: devoid of PAR4 activity

Molecule: COc1ccc(-c2c(CO)n(Cc3ccccc3F)c3ccc(OC(F)(F)F)cc23)cn1 [9c]
PAR4 activity (in words) [3]: devoid of PAR4 activity

Molecule: COc1cccc(Cn2c(CO)c(-c3ccc(OC)nc3)c3cc(C(F)(F)F)ccc32)c1 [9d]
PAR4 activity (in words) [3]: devoid of PAR4 activity

Further lines, with some results ahead:

IC50 [3]: 1490 nM
Molecule: CSc1ncc(-c2c(CO)n(Cc3ccc(F)cc3F)c3ccc(OC(F)(F)F)cc23)cn1 [10c]

IC50 [3]: 930 nM
Molecule: COc1ccc(-c2c(CO)n(Cc3ccccc3Cl)c3cc(OC(F)(F)F)ccc23)cn1 [11d]

clearance at 6 h [4]: 45 mL/min/kg
human CLHEP [5]: 1.1 mL/min/kg
rat CLHEP [6]: 36.1 mL/min/kg
Molecule: COc1nn2cc(-c3c(CO)n(Cc4ccccc4Cl)c4ccc(OC(F)(F)F)cc34)nc2s1 [10h]
mode of PAR4 inhibition [7]: complex mode of PAR4 inhibition; also recorded: mixed competitive/noncompetitive mechanism of action

PAR4 activity (in words) [3]: inactive
Molecule: OCc1c(-c2cncnc2)c2cc(OC(F)(F)F)ccc2n1Cc1ccc(F)cc1F [10b]
